Data as given in ChEMBL document CHEMBL4020748, “Benzoxazolinone aryl sulfonamides as potent, selective Nav1.7 inhibitors with in vivo efficacy in a preclinical pain model” (Bioorg Med Chem Lett, 2017).
One block for each molecule: values may come before it. Calls of active or inactive are those of the source. The rule behind the calls is not given here.

Key:
[1] = biological target: Sodium channel protein type 5 subunit alpha (Homo sapiens, UniProt Q14524); assay: Inhibition of 50% inactivated human Nav1.5alpha expressed in HEK293 cells incubated for 5 mins measured at 10 secs interval by PatchXpress automated electrophysiology method; type: ADME, cell-based
Sodium channel protein type 5 subunit alpha, sequence (Q14524 whole entry): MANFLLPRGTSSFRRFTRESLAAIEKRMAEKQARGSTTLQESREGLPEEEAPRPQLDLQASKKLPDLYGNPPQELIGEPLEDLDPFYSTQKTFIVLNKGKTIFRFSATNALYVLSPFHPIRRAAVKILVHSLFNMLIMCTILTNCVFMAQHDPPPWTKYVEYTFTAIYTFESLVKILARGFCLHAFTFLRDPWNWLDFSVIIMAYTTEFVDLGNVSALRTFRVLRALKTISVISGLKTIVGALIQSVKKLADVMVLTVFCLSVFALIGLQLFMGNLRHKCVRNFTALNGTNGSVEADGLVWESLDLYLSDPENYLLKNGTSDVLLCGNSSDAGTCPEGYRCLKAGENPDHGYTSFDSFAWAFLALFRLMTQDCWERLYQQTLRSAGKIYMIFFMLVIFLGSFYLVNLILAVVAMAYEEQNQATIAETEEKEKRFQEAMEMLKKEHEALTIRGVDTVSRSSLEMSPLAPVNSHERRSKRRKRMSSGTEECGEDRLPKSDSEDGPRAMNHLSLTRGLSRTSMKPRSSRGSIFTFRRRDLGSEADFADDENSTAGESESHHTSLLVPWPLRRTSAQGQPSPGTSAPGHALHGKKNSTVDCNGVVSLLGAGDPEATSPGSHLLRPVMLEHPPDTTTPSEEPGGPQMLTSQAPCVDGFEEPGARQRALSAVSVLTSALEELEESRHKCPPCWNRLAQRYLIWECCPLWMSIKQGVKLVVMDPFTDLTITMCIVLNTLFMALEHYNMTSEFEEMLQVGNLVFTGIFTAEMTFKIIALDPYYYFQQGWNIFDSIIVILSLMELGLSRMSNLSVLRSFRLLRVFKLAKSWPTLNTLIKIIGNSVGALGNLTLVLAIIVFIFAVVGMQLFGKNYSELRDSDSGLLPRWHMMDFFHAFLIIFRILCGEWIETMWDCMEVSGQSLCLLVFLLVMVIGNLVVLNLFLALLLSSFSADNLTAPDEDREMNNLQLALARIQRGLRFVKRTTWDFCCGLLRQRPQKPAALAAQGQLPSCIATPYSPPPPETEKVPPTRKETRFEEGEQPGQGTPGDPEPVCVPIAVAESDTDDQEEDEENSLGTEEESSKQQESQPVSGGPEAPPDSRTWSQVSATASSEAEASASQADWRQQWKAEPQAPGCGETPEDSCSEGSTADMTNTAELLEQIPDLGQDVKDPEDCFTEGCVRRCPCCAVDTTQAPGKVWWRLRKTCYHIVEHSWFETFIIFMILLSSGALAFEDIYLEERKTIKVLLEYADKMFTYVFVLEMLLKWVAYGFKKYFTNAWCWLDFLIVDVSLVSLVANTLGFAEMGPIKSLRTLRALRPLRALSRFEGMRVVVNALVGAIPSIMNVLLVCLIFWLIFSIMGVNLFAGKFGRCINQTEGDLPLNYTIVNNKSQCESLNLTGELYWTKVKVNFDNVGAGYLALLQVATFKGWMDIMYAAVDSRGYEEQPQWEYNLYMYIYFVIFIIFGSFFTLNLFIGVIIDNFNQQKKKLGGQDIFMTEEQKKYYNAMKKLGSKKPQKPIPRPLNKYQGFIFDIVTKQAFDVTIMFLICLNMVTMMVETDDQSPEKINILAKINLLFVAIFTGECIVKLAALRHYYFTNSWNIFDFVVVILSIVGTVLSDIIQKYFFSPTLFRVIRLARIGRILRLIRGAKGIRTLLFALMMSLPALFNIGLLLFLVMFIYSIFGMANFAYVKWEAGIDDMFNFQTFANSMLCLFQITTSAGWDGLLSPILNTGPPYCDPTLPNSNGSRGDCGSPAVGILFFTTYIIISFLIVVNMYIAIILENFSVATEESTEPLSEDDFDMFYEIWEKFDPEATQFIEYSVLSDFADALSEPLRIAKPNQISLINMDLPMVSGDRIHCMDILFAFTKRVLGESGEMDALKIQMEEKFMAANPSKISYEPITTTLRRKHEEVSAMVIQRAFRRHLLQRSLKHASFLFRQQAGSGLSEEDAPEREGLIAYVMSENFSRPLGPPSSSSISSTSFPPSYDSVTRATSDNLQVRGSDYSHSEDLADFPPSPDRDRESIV

[2] = Selectivity ratio of IC50 for human Nav1.5alpha expressed in HEK293 cells to human Nav1.7alpha expressed in HEK293 cells
[3] = biological target: T1, Sodium channel protein type 9 subunit alpha (Homo sapiens, UniProt Q15858); assay: Inhibition of 50% inactivated human Nav1.7alpha expressed in HEK293 cells incubated for 5 mins measured at 10 secs interval by PatchXpress automated electrophysiology method; type: cell-based
[4] = biological target: T1, Sodium channel protein type 9 subunit alpha; assay: Inhibition of NaV1.7 channel in human DRG neurons assessed as reduction of TTX-sensitive current by whole cell patch clamp assay
[5] = Ratio of drug level in brain to plasma in rat; type: ADME
[6] = biological target: T2, Sodium channel protein type 9 subunit alpha (Mus musculus, UniProt Q62205); assay: Inhibition of 50% inactivated mouse Nav1.7alpha incubated for 5 mins measured at 10 secs interval by PatchXpress automated electrophysiology method
T2 sequence (Q62205 whole entry): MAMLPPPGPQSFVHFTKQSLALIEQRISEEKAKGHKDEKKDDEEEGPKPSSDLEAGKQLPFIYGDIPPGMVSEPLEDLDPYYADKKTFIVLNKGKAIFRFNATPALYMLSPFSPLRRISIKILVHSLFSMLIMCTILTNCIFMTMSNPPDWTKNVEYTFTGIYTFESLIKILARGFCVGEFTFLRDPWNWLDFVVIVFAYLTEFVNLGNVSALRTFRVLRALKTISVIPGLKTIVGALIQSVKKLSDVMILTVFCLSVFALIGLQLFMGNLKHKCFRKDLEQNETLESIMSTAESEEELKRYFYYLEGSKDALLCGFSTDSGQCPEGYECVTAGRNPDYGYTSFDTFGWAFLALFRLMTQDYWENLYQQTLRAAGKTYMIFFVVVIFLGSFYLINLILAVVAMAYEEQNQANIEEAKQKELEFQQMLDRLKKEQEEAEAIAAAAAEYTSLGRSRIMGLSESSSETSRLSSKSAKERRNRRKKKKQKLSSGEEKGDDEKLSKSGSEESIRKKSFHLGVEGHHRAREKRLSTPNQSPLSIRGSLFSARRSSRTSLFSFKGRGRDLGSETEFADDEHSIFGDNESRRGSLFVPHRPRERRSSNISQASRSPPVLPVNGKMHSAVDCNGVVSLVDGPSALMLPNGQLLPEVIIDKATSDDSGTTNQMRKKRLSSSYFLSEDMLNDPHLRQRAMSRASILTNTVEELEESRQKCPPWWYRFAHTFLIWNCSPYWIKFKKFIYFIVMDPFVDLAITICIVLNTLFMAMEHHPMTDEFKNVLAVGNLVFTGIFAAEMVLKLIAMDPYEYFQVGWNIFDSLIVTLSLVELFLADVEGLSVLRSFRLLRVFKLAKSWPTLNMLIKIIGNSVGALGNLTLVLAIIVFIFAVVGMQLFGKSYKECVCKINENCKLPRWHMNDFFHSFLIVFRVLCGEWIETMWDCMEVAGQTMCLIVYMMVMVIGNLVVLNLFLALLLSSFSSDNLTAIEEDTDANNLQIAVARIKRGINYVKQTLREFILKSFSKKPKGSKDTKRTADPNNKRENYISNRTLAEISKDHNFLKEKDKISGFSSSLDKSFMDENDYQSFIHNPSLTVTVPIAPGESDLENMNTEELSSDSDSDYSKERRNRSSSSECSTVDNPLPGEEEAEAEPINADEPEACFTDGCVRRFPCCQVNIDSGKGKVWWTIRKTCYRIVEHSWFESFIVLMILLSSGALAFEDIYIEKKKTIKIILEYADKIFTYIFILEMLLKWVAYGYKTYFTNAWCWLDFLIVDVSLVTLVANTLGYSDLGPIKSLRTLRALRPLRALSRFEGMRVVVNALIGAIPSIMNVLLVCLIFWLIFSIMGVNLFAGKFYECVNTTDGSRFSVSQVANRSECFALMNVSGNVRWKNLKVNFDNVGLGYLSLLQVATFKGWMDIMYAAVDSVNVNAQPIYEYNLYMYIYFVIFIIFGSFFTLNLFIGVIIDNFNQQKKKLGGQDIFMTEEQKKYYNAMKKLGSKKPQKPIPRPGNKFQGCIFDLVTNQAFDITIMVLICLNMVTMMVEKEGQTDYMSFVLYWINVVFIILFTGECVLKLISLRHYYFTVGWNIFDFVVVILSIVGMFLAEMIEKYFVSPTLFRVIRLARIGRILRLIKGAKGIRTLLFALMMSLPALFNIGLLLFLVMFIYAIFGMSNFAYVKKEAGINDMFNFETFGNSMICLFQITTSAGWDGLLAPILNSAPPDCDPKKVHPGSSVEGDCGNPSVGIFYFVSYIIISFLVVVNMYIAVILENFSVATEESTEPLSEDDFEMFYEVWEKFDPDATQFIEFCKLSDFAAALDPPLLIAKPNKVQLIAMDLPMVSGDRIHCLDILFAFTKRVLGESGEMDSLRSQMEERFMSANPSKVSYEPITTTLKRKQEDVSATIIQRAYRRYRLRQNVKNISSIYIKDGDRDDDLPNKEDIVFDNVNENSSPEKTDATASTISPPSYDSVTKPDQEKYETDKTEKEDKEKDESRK

[7] = Oral bioavailability in Wistar Hannover rat at 10 mg/kg; type: ADME, organism-based; settings: in vivo
[8] = biological target: Voltage-dependent L-type calcium channel subunit alpha-1C (Homo sapiens, UniProt Q13936); assay: Activity at Cav1.2 (unknown origin)
[9] = Apparent permeability of the compound; type: physicochemical; settings: not told
[10] = tested on: Mus musculus; assay: Analgesic activity in C57BL/6 mouse assessed as reduction in formalin-induced nociceptive behavior administered subcutaneously pretreated for 90 mins followed by formalin challenge measured up to 30 mins; type: functional
[11] = Fraction unbound in C57BL/6 mouse plasma at 100 mg/kg, sc; type: ADME, organism-based
[12] = Activity at CYP450 (unknown origin); type: ADME; settings: human
[13] = tested on: Mus musculus; assay: Analgesic activity in C57BL/6 mouse assessed as reduction in formalin-induced nociceptive behavior at 100 mg/kg, sc pretreated for 90 mins followed by formalin challenge measured up to 5 mins; type: functional, organism-based
[14] = biological target: Voltage-gated inwardly rectifying potassium channel KCNH2 (Homo sapiens, UniProt Q12809); assay: Activity at human ERG
Voltage-gated inwardly rectifying potassium channel KCNH2, sequence (Q12809 whole entry): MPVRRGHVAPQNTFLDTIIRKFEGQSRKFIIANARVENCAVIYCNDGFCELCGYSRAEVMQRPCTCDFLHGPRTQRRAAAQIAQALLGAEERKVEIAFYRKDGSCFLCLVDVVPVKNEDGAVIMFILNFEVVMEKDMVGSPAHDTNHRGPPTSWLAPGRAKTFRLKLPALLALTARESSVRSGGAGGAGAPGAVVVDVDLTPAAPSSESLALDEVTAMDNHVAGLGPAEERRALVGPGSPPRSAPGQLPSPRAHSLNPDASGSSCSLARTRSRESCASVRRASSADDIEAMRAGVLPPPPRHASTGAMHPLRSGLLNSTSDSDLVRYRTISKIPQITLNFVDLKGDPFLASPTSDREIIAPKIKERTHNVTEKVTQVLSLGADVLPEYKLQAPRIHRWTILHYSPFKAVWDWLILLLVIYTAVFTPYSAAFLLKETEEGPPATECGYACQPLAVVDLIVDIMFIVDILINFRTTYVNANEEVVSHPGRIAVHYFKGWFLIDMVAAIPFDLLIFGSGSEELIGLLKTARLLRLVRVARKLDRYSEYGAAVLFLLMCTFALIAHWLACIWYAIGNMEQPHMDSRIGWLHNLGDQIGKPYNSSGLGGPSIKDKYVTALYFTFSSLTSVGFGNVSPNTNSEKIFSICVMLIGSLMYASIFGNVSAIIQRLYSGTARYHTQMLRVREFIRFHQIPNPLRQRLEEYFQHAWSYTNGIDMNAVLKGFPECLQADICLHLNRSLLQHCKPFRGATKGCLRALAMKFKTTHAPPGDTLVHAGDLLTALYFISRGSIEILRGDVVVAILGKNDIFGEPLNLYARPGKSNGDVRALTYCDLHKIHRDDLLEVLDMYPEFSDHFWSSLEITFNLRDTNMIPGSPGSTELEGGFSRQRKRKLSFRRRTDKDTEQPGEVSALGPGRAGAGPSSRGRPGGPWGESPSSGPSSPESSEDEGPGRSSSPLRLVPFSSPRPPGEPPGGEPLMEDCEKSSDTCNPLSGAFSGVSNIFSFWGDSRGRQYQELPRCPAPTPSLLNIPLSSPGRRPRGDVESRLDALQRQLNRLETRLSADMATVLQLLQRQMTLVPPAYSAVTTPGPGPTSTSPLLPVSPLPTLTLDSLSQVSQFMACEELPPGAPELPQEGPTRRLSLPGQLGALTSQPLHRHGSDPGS

[15] = tested on: Rattus norvegicus; assay: Unbound plasma clearance in Wistar Hannover rat at 2 mg/kg, iv; type: ADME, organism-based; settings: in vivo
[16] = biological target: T2, Sodium channel protein type 9 subunit alpha; assay: Inhibition of NaV1.7 channel in mouse DRG neurons assessed as reduction of TTX-sensitive current by whole cell patch clamp assay
[17] = Ratio of drug level in CSF to plasma in rat; type: ADME
[18] = tested on: Mus musculus; assay: Analgesic activity in C57BL/6 mouse assessed as reduction in formalin-induced nociceptive behavior at 100 mg/kg, sc pretreated for 90 mins followed by formalin challenge measured after 20 to 35 mins; type: functional, organism-based
[19] = biological target: Sodium channel protein type 2 subunit alpha (Homo sapiens, UniProt Q99250); assay: Inhibition of Nav1.2 (unknown origin)
[20] = biological target: T3, Nuclear receptor subfamily 1 group I member 2 (Homo sapiens, UniProt O75469); assay: Activity at PXR (unknown origin); type: ADME
T3 sequence (O75469 whole entry): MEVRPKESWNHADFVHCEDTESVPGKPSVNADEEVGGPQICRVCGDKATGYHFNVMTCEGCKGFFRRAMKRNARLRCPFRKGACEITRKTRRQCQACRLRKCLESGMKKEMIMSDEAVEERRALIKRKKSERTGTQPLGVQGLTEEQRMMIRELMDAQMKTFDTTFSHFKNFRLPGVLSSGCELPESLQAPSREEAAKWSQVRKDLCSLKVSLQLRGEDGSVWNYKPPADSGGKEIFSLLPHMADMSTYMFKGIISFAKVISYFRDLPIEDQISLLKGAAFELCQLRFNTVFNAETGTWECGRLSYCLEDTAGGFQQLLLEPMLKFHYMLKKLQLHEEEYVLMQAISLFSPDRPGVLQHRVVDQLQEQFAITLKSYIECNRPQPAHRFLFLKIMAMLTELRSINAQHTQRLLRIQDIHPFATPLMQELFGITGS

[21] = Fraction unbound in Wistar Hannover rat plasma; type: ADME, cell-free
[22] = tested on: Mus musculus; assay: Analgesic activity in C57BL/6 mouse assessed as unbound concentration required for 50% reduction in formalin-induced nociceptive behavior at 100 mg/kg, sc pretreated for 90 mins followed by formalin challenge measured after 20 to 35 mins; type: functional
[23] = Ratio of fIC50 for analgesic activity in formalin-induced nociceptive C57BL/6 mouse model assessed as reduction in nociceptive behavior to IC50 for 50% inactivated mouse Nav1.7alpha
[24] = Half life in Wistar Hannover rat at 2 mg/kg, iv; type: ADME, organism-based; settings: in vivo
[25] = biological target: Sodium channel protein type 9 subunit alpha (Rattus norvegicus, UniProt O08562); assay: Inhibition of NaV1.7 channel in rat DRG neurons assessed as reduction of TTX-sensitive sodium current by whole cell patch clamp assay

IC50 [3]: 970 nM
SMILES: O=c1sc2cc(S(=O)(=O)Nc3ncns3)ccc2n1Cc1ccccc1
IC50 [1]: > 30000 nM | Ratio IC50 [2]: >31

IC50 [3]: 815 nM
SMILES: O=C1COc2cc(S(=O)(=O)Nc3ncns3)ccc2N1Cc1ccccc1
IC50 [1]: > 30000 nM | Ratio IC50 [2]: >37

IC50 [3]: 190 nM
SMILES: O=c1oc2cc(S(=O)(=O)Nc3ncns3)ccc2n1Cc1cccc2c1CNCC2
Ratio IC50 [2]: >158

IC50 [6]: 11 nM | bioavailability [7]: 50% | Papp [9]: 4 ×10⁻⁶ cm/s | fraction unbound [11]: 0.145 | CL free [15]: 170 mL/min/kg | IC50 [18]: 7400 nM | IC50 [3]: 39 nM | half-life [24]: 3 h
SMILES: C[C@H](c1ccccc1CN)n1c(=O)oc2cc(S(=O)(=O)Nc3cccc(F)n3)c(F)cc21
Ratio IC50 [2]: 850 | fIC50 [22]: 1.1 µM | Ratio [23]: 100

The remaining lines, values behind:

SMILES: O=c1oc2cc(S(=O)(=O)Nc3ncns3)ccc2n1Cc1ccccc1
IC50 [1]: > 30000 nM | Ratio IC50 [2]: >62

SMILES: C[C@H](c1cccc2c1CNCC2)n1c(=O)oc2cc(S(=O)(=O)Nc3ncns3)ccc21
IC50 [4]: 31 nM | BPR [5]: 1% | IC50 [6]: 30 nM | bioavailability [7]: 2% | Ratio IC50 [2]: 1381 | Activity [8]: Not Active | Papp [9]: < 2 ×10⁻⁶ cm/s | Activity [10]: Dose-dependent effect | fraction unbound [11]: 0.065 | Activity [12]: Not Active | Activity [13]: Active | Activity [14]: Not Active | CL free [15]: 360 mL/min/kg | IC50 [16]: 82 nM | Ratio [17]: 0% | IC50 [18]: 23000 nM | IC50 [19]: 29 nM | Activity [20]: Not Active | fraction unbound [21]: 0.133 | IC50 [3]: 21 nM | fIC50 [22]: 1.5 µM | Ratio [23]: 50 | half-life [24]: 0.8 h | IC50 [25]: 2370 nM

SMILES: C[C@H](c1ccccc1)n1c(=O)oc2cc(S(=O)(=O)Nc3ncns3)ccc21
Ratio IC50 [2]: 287

SMILES: O=S(=O)(Nc1ncns1)c1ccc2c(cnn2Cc2ccccc2)c1
Ratio IC50 [2]: 6

SMILES: C[C@H](c1cccc2c1CNCC2)n1c(=O)oc2cc(S(=O)(=O)Nc3cccc(F)n3)c(F)cc21
bioavailability [7]: 30% | Ratio IC50 [2]: 210 | Papp [9]: 2.5 ×10⁻⁶ cm/s | CL free [15]: 300 mL/min/kg | IC50 [3]: 150 nM | half-life [24]: 1.9 h

SMILES: C[C@H](c1cccc2c1CNCC2)n1c(=O)oc2cc(S(=O)(=O)Nc3ccc(F)cn3)c(F)cc21
Ratio IC50 [2]: 108

SMILES: C[C@H](c1cccc2c1CNCC2)n1c(=O)oc2cc(S(=O)(=O)Nc3cc(Cl)ccn3)c(F)cc21
Ratio IC50 [2]: 88
